Measurements taken from a melting point compilation (Tetko et al.; mined from patent text by program, amines drawn as free bases though some values may be those of a salt).

Row | melting point [°C] | Structure (SMILES)
1 | 62 to 63 | CCOC(=O)c1cc(O)cc(OCC)c1
2 | 168 to 170 | COCCc1nc2c(N)nc3c(c2n1CCCNC(=O)c1ccccc1)CCCC3
3 | 135 to 137 | CCCCC(=N)NC(=O)Nc1cccc(Cl)c1
4 | 72 to 73 | CSc1ccc(N)c([N+](=O)[O-])c1
5 | 103 to 105 | COc1cc(NC(C)CCCN2C(=O)c3ccccc3C2=O)c2ncccc2c1N(C)C (centres undefined)
6 | 209 to 211 | Cc1nc(-c2ccc3c(=O)n(CC(C)C)c(CNC(=O)OC(C)(C)C)c(-c4ccccc4)c3c2)sc1C#N
7 | 143 | COc1ccc(S(=O)(=O)N2C(=O)C(c3ccccc3O)(N3CCC[C@H]3C(=O)N(C)C)c3cc(Cl)ccc32)c(OC)c1 (some centres undefined)
8 | 98 to 99 | COCOC1=C(C(=O)OC)CC(C#N)(c2ccc(OC)c(OCC3CC3)c2)CC1 (centres undefined)
9 | 196 to 198 | CC(=O)c1ccc(=O)[nH]c1C
10 | 59 to 65 | CC(C)(C#N)NC(=O)c1ccccc1Cl
11 | 86 to 88 | CCCCCON=C(C(=O)OCC)c1csc(N)n1
12 | 109 to 112 | COc1cc(C)c(C(=O)c2c(Cl)nc(Cl)c(C(C)=O)c2C(F)(F)F)c(OC)c1OC
13 | 251 to 256 | CCn1ncc2c(O)c(CCc3ccccc3)c(C)nc21
14 | 120 to 121 | COC(=O)CC(CSC(C)=O)C(=O)O (centres undefined)
15 | 149 to 150 | COC(=O)c1ccc2c(c1)Sc1ccccc1NC2
16 | 56 to 57 | COc1cc2c(c(N(C(C)=O)C(C)=O)c1)CC(C)O2 (centres undefined)
17 | 155 to 158 | O=C(O)c1c(O)cccc1Cc1cccs1
18 | 278 to 283 | CCOC(=O)c1cn2c3c(cc(I)cc3c1=O)N(C)C(=O)C2
19 | 142 to 143 | COc1ccc(S(=O)(=O)N(Cc2cc(C(C)(C)C)c(O)c(C(C)(C)C)c2)c2cccnc2)cc1

Row | melting point [°C] | Structure (SMILES)
20 | 94 to 96 | COc1ccc(Nc2ccccc2C(C)=C(Cl)Cl)cc1OC
21 | 89 to 91 | COc1cn([C@H](C)c2cccc3ccccc23)c(=O)o1
22 | 66 to 68 | CCCC(C)C(=O)Oc1c(I)cc(I)cc1I (centres undefined)
23 | 217 to 220 | CCCCc1ncc(/C=C(\Cc2cccs2)C(=O)O)n1Cc1ccc(C(=O)OC)cc1
24 | 170 | CC(=O)OCCOC(=O)C1=C(C)Nc2nc(N3CCOCC3)nc(N3CCOCC3)c2C1c1cccnc1 (centres undefined)
25 | 164 to 167 | COC(=O)CCc1ccc(Oc2ccc(-c3ccc(C#N)cc3)nn2)cc1
26 | 74 | CCOc1ccc(CCNC(=O)/C=C/c2cccs2)cc1S(=O)(=O)NC(=S)NC
27 | 159 | CN(O)CC1=C(n2ccccc2=O)c2cc([N+](=O)[O-])ccc2OC1(C)C
28 | 129 to 130 | CCOC(=O)C1=C(C)NC(SCc2ccccc2)=NC1c1cccc([N+](=O)[O-])c1 (centres undefined)
29 | 82 | CCCCCCc1cc2c(cc1OCCCC(=O)O)C(=O)C(C)(C)C2
30 | 252 to 254 | NC(CSCc1ccccc1C(=O)O)C(=O)O (centres undefined)
31 | 182 | C=C(C)C(=O)Nc1ccc2ccc(Cl)nc2n1
32 | 252 to 254 | CC(C)C1(C)N=C(c2ccc(O)cn2)NC1=O (centres undefined)
33 | 86 to 88 | COCC(=O)N(c1c(C)cccc1N)C(C)C(=O)OC (centres undefined)
34 | 99 | CC(C)(C(N)=O)/C(F)=C(/F)c1ccc(Cl)cc1
35 | 121 to 122 | COc1ccc(CNc2ncnc3c2ncn3C2OC(CNC(C)=O)C(O)C2O)cc1 (centres undefined)
36 | 140 to 141 | CCOC(=N)CC1(C)OCCc2c1[nH]c1ccccc21 (centres undefined)
37 | 180 to 182 | COc1ccc(NS(=O)(=O)c2ccc([N+](=O)[O-])cc2OC)cc1

The remaining lines, values behind:

Row | Structure (SMILES) | melting point [°C]
38 | NC1CC(c2c[nH]c3ccc(CC4COC(=O)N4)cc23)C1 (centres undefined) | 95 to 100
39 | Cc1cc2nc(NC(=O)C(C)(C)C)nc(Cl)c2[nH]1 | 162 to 163
40 | O=C(C1CC1)N1CCC2(CC1)Cc1ccccc1O2 | 111 to 113
41 | CC1(C)CCC(C)(C)c2cc(-c3cc(-c4ccc(CN)cc4)on3)ccc21 | 138 to 143
42 | Cc1nc(-c2cnc3[nH]cc(C(=O)N[C@@H](C(=O)N4CC(C#N)C4)C4CC4)c3n2)cn1CC(F)(F)F | 255 to 256
43 | c1cnc2scc(Nc3ccncc3)c2c1 | 200 to 204
44 | Nc1ncnc2c1c(-c1cc(O)cc(F)c1)nn2Cc1oc2ccccc2c(=O)c1-c1cccc(F)c1 | 235 to 237
45 | Fc1ccc(C(CCCN2CCC(c3nn(-c4ccccc4)c4cc(F)ccc34)CC2)c2ccc(F)cc2)cc1 | 113 to 115
46 | O=C(O)CC(c1ccc(OCc2ccc3ccccc3n2)cc1)c1ccc(OCc2ccc3ccccc3n2)cc1 | 94 to 111
47 | Cn1c(C(F)(F)F)cc(C#N)c1-c1ccc2ccccc2c1 | 134
48 | ON=Cc1cc(OCC(F)(F)F)ccc1OCc1ccccc1 | 93 to 95
49 | NC(=O)c1cc([N+](=O)[O-])c(Oc2ccccc2)c(S(N)(=O)=O)c1 | 255 to 256
50 | Nc1nc(CSCCN2CCN(C(c3ccccc3)c3ccccc3)CC2)cs1 | 159 to 161
51 | O=C(CC(=O)Nc1ccc2c(c1)NC(=O)C2)Nc1ccc(F)cc1 | 221
52 | O=Cc1cc(-c2ncco2)ccc1Br | 100 to 104
53 | COc1cc2c(cc1OC)-c1c(OC)c(OC)cc3c1C(C2)N(C)CC3O (single isomer, unassigned; (+)) | 180 to 182
54 | CC(=O)N1CCC(C2=C(C#N)C(c3cccc(C#N)c3Br)c3c[nH]nc3N2)CC1 (centres undefined) | > 280
55 | COC(=O)N(C(=O)C(=O)c1cn(Cc2ccc(Cl)cc2)c2ccccc12)c1ccc2ncccc2c1 | 178
56 | CC(C)CCC(O)C(CC1CCCCC1)NC(=O)C(Cc1c[nH]cn1)N(C)C(=O)C(Cc1ccccc1)OC(=O)N1CCOCC1 (centres undefined) | 91 to 95
57 | O=C1NC(=O)c2c1c(-c1ccccc1Cl)cc1c2c2cc(O)ccc2n1CC(O)CO (centres undefined) | 305 to 309
58 | C[C@]1(COc2ccc(N3CCC(OCC=Cc4ccc(OC(F)(F)F)cc4)CC3)cc2)Cn2cc([N+](=O)[O-])nc2O1 | 214 to 217

Row | Structure (SMILES) | melting point [°C]
59 | Cc1ccc(-c2[nH]c(C(F)(F)F)nc2-c2ccc(S(C)(=O)=O)cc2)cc1 | 234 to 238
60 | O=C(NO)C(CN1C(=O)CNC1=O)CS(=O)(=O)c1ccc(-c2ccc(Cl)cc2)cc1 (centres undefined) | 150 to 156
61 | C=C1N=C(c2ccccc2F)c2cc(Cl)ccc2C(=O)C1N(C)C (centres undefined) | 224 to 226
62 | CN(C)C(=O)c1ncn2c(=O)n(CCCl)nnc12 | 114 to 116
63 | N#Cc1cnc2cc(-c3cc(CN4CCOCC4)c(CN4CCOCC4)s3)ccc2c1Nc1ccc(Cl)cc1Cl | 118 to 125
64 | OCC1Cc2c([nH]c3ccccc23)CN1C(=S)SCc1ccc(Cl)cc1 (centres undefined) | 175 to 176
65 | C#CCc1c(C)nc2c(OCc3ccncc3C)cccn12 | 156 to 157
66 | O=C(O)CCc1cn(Cc2ccc(OCc3csc(-c4ccncc4)n3)cc2)cc1-c1ccccc1 | 149 to 150
67 | CCOc1ccc(C(=O)NC2N(C)C(c3ccc(F)cc3)=NC2(C(F)(F)F)C(F)(F)F)cc1 (centres undefined) | 115 to 116
68 | CSC(SC)=C(C(=O)C(C)(C)C)n1cncn1 | 60
69 | CN1CC=C(C(=O)N2c3ccccc3NC(=O)c3cscc32)CC1 | 210 to 212
70 | CCCCN(C)CCOc1ccc(Cn2c(-c3ccc(O)cc3)c(C)c3cc(O)ccc32)cc1 | 102 to 107
71 | CC(C)(C)c1cc(-c2ccc(N)cc2)cc(C(C)(C)C)c1O | 113 to 114
72 | CC1(C)C=C(c2ccccn2)c2cc(C#N)ccc2OC1 | 155 to 157
73 | Cc1c2ccccc2c(-c2ccc(O)cc2)c2c1sc1ccccc12 | 184 to 185
74 | O=C(CN1C(=O)c2ccccc2C1=O)c1ccc(F)cc1 | 140 to 144
75 | COc1ccc(Nc2cnc3c(NCc4ccccc4)nc(NCCO)nc3c2)cc1OC | 149 to 150
76 | CN(C1=NC(=O)CS1)c1ccc(C(O)(C(F)(F)F)C(F)(F)F)cc1 | 240 to 242
77 | O=C1Cc2ccccc2Sc2cc(C(F)(F)F)c(Cl)cc21 | 123 to 124
78 | O=S(=O)(Nc1ccc2c(OCc3ccc(Br)cc3F)cccc2c1)C(F)(F)F | 123 to 125
79 | CCc1nc2c(N)nc3cc(OCCc4c[nH]c5ccccc45)ccc3c2s1 | 218 to 220

Row | Structure (SMILES) | melting point [°C]
80 | Nc1cccc(-c2ccc(CCNCCCCCc3ccccc3)cc2)n1 | 60 to 70
81 | CNC(=O)COCC(=O)O | 33 to 33.5
82 | CCCCCc1ccc(-c2ncc(C#N)cn2)cc1 | 96 to 96.2
83 | N#Cc1ccc(Nc2nc(N)nc(Cc3c(Cl)ccc4[nH]ccc34)n2)cc1 | 267 to 268
84 | O=C=Nc1cc(OC(=O)Oc2cc(N=C=O)c(F)cc2Cl)c(Cl)cc1F | 108 to 109
85 | N#CC(CN)C(CO)c1ccc(Cl)c(Cl)c1 (single isomer, unassigned; (+)) | 80 to 81
86 | C(=C\c1nc(COc2ccc(CCCn3cnc(-c4ccccc4)c3-c3ccccc3)cc2)co1)/c1ccccc1 | 137 to 138
87 | Cn1cc(S(N)(=O)=O)c(=O)c2ccccc21 | 230 to 231
88 | COCC1OC(n2cnc3c(NC4CCCC4)nc(Cl)nc32)C(O)C1O (centres undefined) | 124 to 126
89 | O=[N+]([O-])c1cccc(OCc2ncc3ccccc3n2)c1 | 125 to 127
90 | CSC1CCC2C3CCC4=CC(=O)C=CC4(C)C3(F)C(O)CC12C (centres undefined) | 235 to 236
91 | CC12CCC3C(CC=C4CC(O[Si](C)(C)C(C)(C)C)CCC43C)C1CCC2=O (centres undefined) | 146 to 148
92 | Cc1nc(SCc2cc(O)nc(O)n2)sc1CC(=O)O | 246 to 247
93 | Cc1ccc(N(c2ccc(C)cc2)c2ccc(C=Cc3ccccc3O)cc2)cc1 | 136 to 138
94 | CCCOCCOc1ccccc1-c1ccc2c(c1)C=C(C(=O)Nc1ccc(CN(C)C3CCOCC3)cc1)CCS2(=O)=O | 164 to 166
95 | CCN(CC)c1ccc2cc(-c3nc(-c4ccccc4)cs3)c(=O)oc2c1 | 127 to 130
96 | CCNc1nc(C=O)cs1 | 84 to 85
97 | Cc1cccc2[nH]c(=O)n(CCCN3CC=C(c4ccc(Cl)cc4)CC3)c(=O)c12 | 175 to 178
98 | CNc1cc(Oc2ccc3c(c2)CCCN3C(=O)Nc2ccc(C(C)(C)C)cc2)ncn1 | 175 to 176
99 | Cn1cnc2c(NC3CCCC3)ncnc21 | 108 to 109
